Source: US11471387B2, “Oral cavity care method and oral cavity care system” (priority 2017, dated 2022)

Columns and labels:
[1] = system: tissue cells (FIGS. 6A, 6C); assay: Safety test, survival rate of tissue cells (FIGS. 6A and 6C)
[2] = system: tissue cells (FIGS. 6B, 6D); assay: Safety test, survival rate of tissue cells (FIGS. 6B and 6D)

For `[H]/N=C(\N/C(=N/[H])NCCCCCCNC(=N)NC(=N)Nc1ccc(Cl)cc1)Nc1ccc(Cl)cc1` [chlorhexidine], which “50% survival rate of tissue cells (time)” value ([1]; FIG. 6A) is on record?
Its value is 10.8 h.

And the cytotoxicity with time ([1]; tissue cells of FIGS. 6A/6C)?
The cytotoxicity with time was “cytotoxic with time”.

And the “50% survival rate of tissue cells (time)” value ([2]; FIG. 6B)?
Its value is 8.4 h.

What about the cytotoxicity with time ([2]; tissue cells of FIGS. 6B/6D) of the same compound?
Its cytotoxicity with time is “cytotoxic with time”.
